Assay results: ChEMBL document CHEMBL3627675, “Protective effects of the bioactive natural product N-trans-Caffeoyldopamine on hepatotoxicity induced by isoniazid and rifampicin” (2015)
Active and inactive are the calls of the source. No cut-off for these calls is given here.

Assays:
[1] = system: Rattus norvegicus; experiment: Protective activity against isoniazid and rifampicin-induced hepatotoxicity in Wistar rat assessed as reduction of serum ALT level at 2.5 mg/kg, po (reference value: 143.7 +/- 12.5 U); assay type: functional
[2] = system: Rattus norvegicus; experiment: Protective activity against isoniazid and rifampicin-induced hepatotoxicity in Wistar rat assessed as reduction of serum AST level at 2.5 mg/kg, po (reference value: 168.5 +/- 14.7 U); assay type: functional
[3] = system: Rattus norvegicus; experiment: Protective activity against isoniazid and rifampicin-induced hepatotoxicity in Wistar rat assessed as increase of SOD activity at 2.5 mg/kg, po (reference value: 31.4 +/- 8.3 U/mg); assay type: functional
[4] = system: Rattus norvegicus; experiment: Protective activity against isoniazid and rifampicin-induced hepatotoxicity in Wistar rat assessed as reduction of MDA level at 2.5 mg/kg, po (reference value: 30.5 +/- 7.8 nM/mg); assay type: functional
[5] = system: Rattus norvegicus; experiment: Protective activity against isoniazid and rifampicin-induced hepatotoxicity in Wistar rat assessed as increase of GSH activity at 2.5 mg/kg, po (reference value: 29.4 +/- 11.4 uM/gram); assay type: functional
[6] = species on record: Rattus norvegicus; experiment: Protective activity against isoniazid and rifampicin-induced hepatotoxicity in Wistar rat by haematoxylin and eosin staining; assay type: functional, organism-based
[7] = species on record: Rattus norvegicus; experiment: Protective activity against isoniazid and rifampicin-induced hepatotoxicity in Wistar rat assessed as decrease of CYP2E1 mRNA expression in liver; assay type: functional, organism-based

| Structure (SMILES) | Activity [1] [U] | Activity [2] [U] | Activity [3] [U/mg] | Activity [4] [nM/mg] | Activity [5] [µmol/g] | Activity [6] | Activity [7] |
| --- | --- | --- | --- | --- | --- | --- | --- |
| O=C(O)/C=C/c1ccc(O)c(O)c1 [CAFFEIC ACID] | 102.9 | 115.6 | 48 | 23.5 | 42.9 | Active | Active |
| O=C(/C=C/c1ccc(O)c(O)c1)NCCc1ccc(O)c(O)c1 | 80.6 | 86.4 | 57 | 14.8 | 49 | Active | Active |
